Data as given in ChEMBL document CHEMBL1201862, “PubChem BioAssay data set” (2004).
The source made the active and inactive calls.

What was measured:
[1] = biological target: Disintegrin and metalloproteinase domain-containing protein 17 (Homo sapiens, UniProt P78536); experiment: exosite inhibitors of ADAM17, dose response, biochemical (AID 743260)
[2] = inhibition of ADAM10 peptide cleavage – biochemical, FRET peptide substrate, recombinant human ADAM10, selectivity assay for ADAM17 exosite inhibitor project, dose response (AID 743259);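 also: ADAM10 enzyme cleaving a FRET peptide substrate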
[3] = biological target: T1, Low molecular weight phosphotyrosine protein phosphatase (Homo sapiens, UniProt P24666); assay type: functional; conditions: read-out: IC50_Mean
[4] = biological target: T1, Low molecular weight phosphotyrosine protein phosphatase; assay type: functional; conditions: read-out: IC50_Mean; remark: listed apart in the source
[5] = viability loss in LCL cells – cell-based, plate reader, dry powder, set 2, cytotoxicity control, dose response (AID 624367); assay type: functional
[6] = activation of miR-122 Renilla sensor silencing – cell-based, Huh7 psiCHECK-miR122, Renilla luciferase, cherry-picked, dose response (AID 651956); assay type: functional;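 also: huh7 hepatoma cells stably carrying a psiCHECK-2 miR-122 sensor plasmid; renilla luciferase signal reporting endogenous miR-122 activity after 48 h compound exposure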
[7] = general mammalian cell viability loss – inhibitor set, cherry-pick, set 2, cytotoxicity control for miR-122 modulator project, dose response (AID 720697); assay type: functional, cell-based
HEK293 = experiment: viability loss in HEK293T cells – cell-based, ATP luminescence, cherry-pick samples, cytotoxicity control, dose response (AID 687005); assay type: functional; conditions: Homo sapiens;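 also: cells exposed to compound for 48 hours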
Paired box protein Pax-8 = Paired box protein Pax-8 (Homo sapiens, UniProt Q06710); experiment: PAX8 transcriptional activity inhibition in RMG-I – RMG-I cells, luciferase, cherry-pick, dose response (AID 687027); assay type: functional, cell-based;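 also: luciferase reporter driven by Pax8 target thyroperoxidase promoter measured by SteadyGlo luminescence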
[8] = A2780 cell killing – plate reader, dry powder samples, cytotoxicity control, dose response (AID 743046); assay type: functional, cell-based
[9] = HEK293 Cytotoxicity Assay Measured in Cell-Based System Using Plate Reader - 7071-01_Inhibitor_Dose_CherryPick_Activity_Set2.; assay type: functional
[10] = inhibitors of EBV LMP1 NF-kappaB signaling – cell-based, luciferase reporter, luminescence, dry powder, set 2, dose response (AID 624376); assay type: functional
[11] = OVCAR8 cell viability loss – plate reader, dry powder samples, PAX8 project, dose response (AID 743197); assay type: functional, cell-based; conditions: OVCAR-8
[12] = biological target: Delta-type opioid receptor (Homo sapiens, UniProt P41143); experiment: Late-stage results from the probe development effort to identify antagonists of OPRK1: fluorescence-based cell-based dose response OPRD1 counterscreen, Set 2.; assay type: functional
[13] = biological target: Kappa-type opioid receptor (Homo sapiens, UniProt P41145); experiment: Late-stage fluorescence-based cell-based dose response assay for antagonists of kappa opioid receptor 1 (OPRK1).; assay type: functional
Mu-type opioid receptor = Mu-type opioid receptor (Homo sapiens, UniProt P35372); experiment: Late-stage results from the probe development effort to identify antagonists of OPRK1: luminescence-based cell-based dose response OPRM1 counterscreen, Set 2.; assay type: functional
[14] = biological target: Sphingosine 1-phosphate receptor 1 (Homo sapiens, UniProt P21453); experiment: Late-stage counterscreen for antagonists of kappa opioid receptor 1 (OPRK1): fluorescence-based cell-based dose response assay to identify antagonists of Sphingosine 1-Phosphate Receptor 1 (S1P1).; assay type: functional
Sequence of Sphingosine 1-phosphate receptor 1 (P21453 whole entry): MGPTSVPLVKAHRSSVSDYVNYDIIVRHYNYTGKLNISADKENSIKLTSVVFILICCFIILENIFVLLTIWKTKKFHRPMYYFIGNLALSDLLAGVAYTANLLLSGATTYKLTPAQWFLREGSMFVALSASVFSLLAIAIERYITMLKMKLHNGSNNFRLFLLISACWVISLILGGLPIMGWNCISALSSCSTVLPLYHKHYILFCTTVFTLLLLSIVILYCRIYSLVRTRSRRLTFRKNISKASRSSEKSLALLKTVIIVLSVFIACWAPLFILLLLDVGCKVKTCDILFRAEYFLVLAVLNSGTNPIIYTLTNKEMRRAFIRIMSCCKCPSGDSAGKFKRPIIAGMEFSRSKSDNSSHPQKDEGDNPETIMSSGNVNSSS

T1 sequence (P24666 whole entry): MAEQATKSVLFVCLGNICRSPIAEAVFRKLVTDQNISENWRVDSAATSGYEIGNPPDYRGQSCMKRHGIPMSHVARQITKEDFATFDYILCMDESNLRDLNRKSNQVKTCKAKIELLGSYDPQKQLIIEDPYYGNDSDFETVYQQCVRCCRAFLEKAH
Sequence of Disintegrin and metalloproteinase domain-containing protein 17 (P78536 whole entry, the tested form may be a part): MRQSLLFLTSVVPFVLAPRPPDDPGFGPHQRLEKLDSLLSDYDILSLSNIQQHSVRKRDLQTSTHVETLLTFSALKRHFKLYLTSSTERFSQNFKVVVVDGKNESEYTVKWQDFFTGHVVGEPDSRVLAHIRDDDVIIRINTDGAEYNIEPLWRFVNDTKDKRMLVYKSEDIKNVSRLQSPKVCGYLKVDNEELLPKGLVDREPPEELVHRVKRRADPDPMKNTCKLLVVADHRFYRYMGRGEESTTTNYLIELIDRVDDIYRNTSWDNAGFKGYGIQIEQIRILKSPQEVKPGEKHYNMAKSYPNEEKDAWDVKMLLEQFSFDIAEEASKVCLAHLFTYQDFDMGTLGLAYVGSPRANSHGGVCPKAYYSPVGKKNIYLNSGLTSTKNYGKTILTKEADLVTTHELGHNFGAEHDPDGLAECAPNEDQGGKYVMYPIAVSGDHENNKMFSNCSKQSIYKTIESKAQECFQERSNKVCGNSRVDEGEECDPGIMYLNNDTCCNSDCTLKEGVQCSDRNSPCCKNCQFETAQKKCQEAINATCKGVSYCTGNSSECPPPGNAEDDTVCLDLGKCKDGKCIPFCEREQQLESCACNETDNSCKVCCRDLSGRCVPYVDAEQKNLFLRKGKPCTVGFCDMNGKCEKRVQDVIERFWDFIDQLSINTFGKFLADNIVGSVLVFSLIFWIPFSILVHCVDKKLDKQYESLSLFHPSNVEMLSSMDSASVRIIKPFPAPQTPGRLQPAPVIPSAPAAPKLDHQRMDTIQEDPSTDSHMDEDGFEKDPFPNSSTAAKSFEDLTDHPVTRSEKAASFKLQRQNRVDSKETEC
Sequence of Delta-type opioid receptor (P41143 whole entry): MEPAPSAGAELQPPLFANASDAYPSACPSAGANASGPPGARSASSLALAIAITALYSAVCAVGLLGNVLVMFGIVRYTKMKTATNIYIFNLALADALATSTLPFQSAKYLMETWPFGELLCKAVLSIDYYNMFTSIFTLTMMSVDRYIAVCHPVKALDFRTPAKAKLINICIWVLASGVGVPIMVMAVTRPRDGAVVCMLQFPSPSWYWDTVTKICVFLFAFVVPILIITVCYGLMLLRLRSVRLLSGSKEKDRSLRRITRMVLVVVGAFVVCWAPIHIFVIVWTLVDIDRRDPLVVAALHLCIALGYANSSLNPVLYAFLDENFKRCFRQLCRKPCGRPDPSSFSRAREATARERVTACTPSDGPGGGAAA
Sequence of Paired box protein Pax-8 (Q06710 whole entry): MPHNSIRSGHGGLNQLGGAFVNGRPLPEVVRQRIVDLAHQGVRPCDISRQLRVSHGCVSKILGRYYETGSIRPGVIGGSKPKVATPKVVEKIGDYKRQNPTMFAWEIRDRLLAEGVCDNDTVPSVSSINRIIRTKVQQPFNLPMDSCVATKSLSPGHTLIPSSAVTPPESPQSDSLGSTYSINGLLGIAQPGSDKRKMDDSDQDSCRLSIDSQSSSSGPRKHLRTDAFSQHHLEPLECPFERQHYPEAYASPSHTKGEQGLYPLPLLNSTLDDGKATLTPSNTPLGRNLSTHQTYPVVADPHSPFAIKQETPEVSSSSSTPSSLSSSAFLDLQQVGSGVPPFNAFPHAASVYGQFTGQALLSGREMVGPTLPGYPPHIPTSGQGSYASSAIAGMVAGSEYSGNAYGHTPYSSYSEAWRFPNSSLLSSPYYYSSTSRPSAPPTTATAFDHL
Sequence of Kappa-type opioid receptor (P41145 whole entry): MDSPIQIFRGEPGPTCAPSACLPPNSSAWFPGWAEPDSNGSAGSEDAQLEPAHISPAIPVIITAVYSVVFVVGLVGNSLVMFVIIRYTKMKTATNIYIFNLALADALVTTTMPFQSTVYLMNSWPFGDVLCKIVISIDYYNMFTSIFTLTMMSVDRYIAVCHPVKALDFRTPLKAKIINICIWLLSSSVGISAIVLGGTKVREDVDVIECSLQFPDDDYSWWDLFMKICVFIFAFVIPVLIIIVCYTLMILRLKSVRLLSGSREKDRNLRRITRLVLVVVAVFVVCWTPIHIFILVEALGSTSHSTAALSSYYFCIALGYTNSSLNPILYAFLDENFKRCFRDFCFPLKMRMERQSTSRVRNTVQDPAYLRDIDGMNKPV
Sequence of Mu-type opioid receptor (P35372 whole entry): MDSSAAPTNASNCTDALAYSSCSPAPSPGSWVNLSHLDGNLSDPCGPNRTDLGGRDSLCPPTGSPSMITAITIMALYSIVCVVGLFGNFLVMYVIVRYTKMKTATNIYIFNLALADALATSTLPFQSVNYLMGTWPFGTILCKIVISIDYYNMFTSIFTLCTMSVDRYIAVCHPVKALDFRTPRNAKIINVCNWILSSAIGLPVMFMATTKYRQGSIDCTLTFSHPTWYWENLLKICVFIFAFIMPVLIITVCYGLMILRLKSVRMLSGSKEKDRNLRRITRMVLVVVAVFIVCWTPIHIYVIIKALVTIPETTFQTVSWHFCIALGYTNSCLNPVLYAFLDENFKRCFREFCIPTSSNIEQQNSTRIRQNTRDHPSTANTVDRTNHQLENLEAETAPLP

**Q.** For `COC(=O)C1=C(c2cccc(OCc3ccccc3)c2)C[C@@H]2CC[C@H]1N2C(=O)NCCOc1ccc(OC)cc1`, which IC50 [1] is on record?
**A.** > 69.5 µM (inactive)

**Q.** And the IC50 [2]?
**A.** 12.1 µM (inactive)

**Q.** With `COCCNc1nc(NCc2cccc(OC)c2OC)c2sccc2n1` as the molecule, how does the IC50 [3] read?
**A.** 8.2 µM (active)

**Q.** What about the IC50 [4] of the same molecule?
**A.** 12.8 µM (active)

**Q.** Which AbsAC35 [5] does the source give for `C[C@H](CO)N1C[C@H](C)[C@H](CN(C)C(=O)NC2CCCCC2)Oc2cc(/C=C/c3ccccc3)ccc2S1(=O)=O` here?
**A.** 53.47 µM

**Q.** What about the AC50 [6] of the same molecule?
**A.** 19.1 µM (active)

**Q.** And the AC50 [7]?
**A.** 15.9 µM (active)

**Q.** For `COc1cccc(S(=O)(=O)N(C)C[C@@H]2OCc3ccccc3-c3ccccc3C(=O)N([C@@H](C)CO)C[C@@H]2C)c1`, which AC50 (HEK293) is on record?
**A.** 36 µM (active)

**Q.** What about the AC50 (Paired box protein Pax-8) of the same molecule?
**A.** 15.9 µM (active)

**Q.** What about the AC50 [8] of the same molecule?
**A.** 53.8 µM (active)

**Q.** And the AC50 [9]?
**A.** 36 µM (active)

**Q.** Which AbsAC35 [10] does the source give for `Cc1noc(C)c1S(=O)(=O)Nc1ccc2c(c1)C(=O)N([C@@H](C)CO)C[C@H](C)[C@@H](CN(C)Cc1ccc(C(F)(F)F)cc1)OCCCC[C@@H](C)O2` here?
**A.** 101.91 µM

**Q.** What does the source list for `COc1ccc(-c2cn(CC[C@H]3CC[C@@H](NC(=O)Cc4ccccn4)[C@@H](CO)O3)nn2)cc1`?
**A.** AC50 [8]: 0.315 µM (active); AC50 [11]: > 70 µM (inactive)

**Q.** Which results are given for `CCOC(=O)c1ccc(N2CC3CCCCN3C2c2cccc(OC)c2O)cc1` (stereo not drawn)?
**A.** IC50 [12]: > 50 µM (inactive); IC50 [13]: 6.85 µM (active); IC50 (Mu-type opioid receptor): > 50 µM (inactive); IC50 [14]: > 50 µM (inactive)
